Test results from PubChem BioAssay AID651630 (Sanford-Burnham Center for Chemical Genomics, 2012).
Calls of active or inactive are those of the source.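 The calls were made as follows: active = lipid-stain IC50 at or below a set limit, with nuclear-stain toxicity IC50 at least five times higher; inactive = the rest.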

Columns and labels:
[1] = system: TAG; test: TAG lipid buildup inhibition with viability readout – cell-based, panel, Nile Red and DAPI fluorescence, H9c2, dose response (AID 651630); details: H9c2 cells, Nile Red TAG fluorescence, oleic acid;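 also: cells exposed to compound overnight before fixation and staining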
[2] = system: DAPI; test: as above; details: H9c2 cells, DAPI nuclear fluorescence (cytotoxicity counter-readout), oleic acid

SMILES | IC50 ([1]; mean of runs) | IC50 ([1]; run 1) [µM] | IC50 ([1]; run 2) [µM] | IC50 cytotoxicity (DAPI nuclear signal decrease) ([2]; run 1) [µM] | IC50 cytotoxicity (DAPI nuclear signal decrease) ([2]; run 2) [µM] | IC50 cytotoxicity (DAPI nuclear signal decrease) ([2]; mean of runs)
COc1ccc(N=C2C(=Nc3ccc(OC)cc3)N(c3ccc(OC)cc3)C(=S)N2C(=O)c2ccc(OC)cc2)cc1 | < 0.78 µM | < 0.78 | < 0.78 | > 25 | > 25 | –
CC(=O)Nc1ccc(-c2ccnc3c2CC(C(=O)NCc2cccc(Cl)c2)O3)cc1 (stereo not given) | 13.3 µM | 15.9 | 10.7 | > 25 | > 25 | > 25 µM (inactive)
O=C(Nc1ccc(S(=O)(=O)N2CCOCC2)cc1)c1ccc([N+](=O)[O-])s1 | 10.9 µM | 13.1 | 8.75 | > 25 | > 25 | > 25 µM (inactive)
COc1ccc2[nH]c3c(c2c1)CCN1C(=O)C(CC(=O)NCC24CC5CC(CC(C5)C2)C4)C[C@H](C(=O)N(C(C)C)C(C)C)[C@@]31C (stereo not given in full) | – | 20.8 | > 25 | > 25 | > 25 | > 25 µM (inactive)
CCOc1c(Cl)cc(/C=C/C(=O)N(CC)CC(=O)NCc2cccs2)cc1OC | 17 µM (inactive) | 19.2 | 14.8 | > 25 | > 25 | > 25 µM (inactive)
O=C(c1ccoc1)N1CCN(c2cc(-c3cccnc3)nc3cc(-c4cccc(Cl)c4)nn23)CC1 | 4.93 µM | 3.16 | 6.71 | > 25 | > 25 | –
O[C@H]1CN(CC2CCCCC2)[C@@H](c2ccc(Cl)cc2)C[C@@H]1n1cc(-c2ccc(F)cc2)nn1 | – | 18.5 | > 25 | > 25 | > 25 | > 25 µM (inactive)
Cc1ccc(N2C(=O)C3CC(c4ccccc4)=C4C5C=CC(C6C(=O)N(c7ccc(C)cc7C)C(=O)C56)C4C3C2=O)c(C)c1 (stereo not given) | – | 22.3 | > 25 | > 25 | > 25 | > 25 µM (inactive)
C#CCN(C[C@@H]1[C@@H](OC(=O)NCC2CCCCC2)[C@@H](OC(=O)NCC2CCCCC2)CN(C(=O)OC(C)C)N1C(=O)OC(C)C)S(=O)(=O)c1ccc(C)cc1 | 10.6 µM | 10.1 | 11.2 | > 25 | > 25 | > 25 µM (inactive)
Brc1ccc(C2=Nn3c(nnc3-c3n[nH]c4c3CCC4)SC2)cc1 | 13.8 µM | 9.45 | 18.1 | > 25 | > 25 | > 25 µM (inactive)
CCCCCCSc1ccc([C@H]2N[C@@](CC(C)C)(C(=O)OC)[C@H]3C(=O)N(C)C(=O)[C@@H]23)cc1OC | > 25 µM (inactive) | > 25 | > 25 | > 25 | > 25 | > 25 µM (inactive)
Cc1noc(C)c1COc1cccc(C(=O)OCC(=O)N2CC(=O)Nc3ccccc32)c1 | 15.4 µM (inactive) | 11.2 | 19.7 | > 25 | > 25 | > 25 µM (inactive)
CN(C)CC(O)c1ccc(C=Cc2ccc(Cl)cc2)cc1 (stereo not given) | 13.8 µM | 11.6 | 16.1 | > 25 | > 25 | > 25 µM (inactive)
Nc1c(Cl)cc(-c2csc(N3CCCC3c3nc4cc(Cl)c(Cl)cc4n3CCCO)n2)cc1Cl (stereo not given) | 8.37 µM | 7.74 | 9 | > 25 | > 25 | > 25 µM (inactive)
Cc1cc(N2CCN(Cc3cn(C)nc3-c3cccc(Cl)c3)CC2)cc(C)n1 | – | > 25 | 22.5 | > 25 | > 25 | > 25 µM (inactive)
COc1ccc2[nH]c3c(c2c1)CCN1C(=O)C(CC(=O)NC/C=C(\C)CCC=C(C)C)C[C@H](C(=O)N(C(C)C)C(C)C)[C@@]31C (stereo not given in full) | 19.3 µM (inactive) | 19.5 | 19.1 | 19.8 | > 25 | –
Cc1ccc(-c2nn(-c3ccccc3)cc2CSC(=N)N)cc1 | 3.82 µM | 3.92 | 3.73 | 21.1 | 20.9 | 21 µM
